Measured values taken from patent publication US10322180B2, “Pharmaceutical composition comprising modified hemoglobin-based therapeutic agent for cancer targeting treatment and diagnostic imaging” (Vision Global Holdings Ltd., priority 2013, dated 2019).

Tested on: Liver cancer cells, HepG2
Experiment: Live cell imaging uptake, liver cancer cells
Format: cell-based, human
Conditions: FIG. 23A-23C
Experimental: Cancer cells (e.g. HepG2 liver cancer cells) are seeded onto glass bottom microwell dishes (MatTek Corporation). Live cells at defined zooms (63×, 20×) are acquired using Zeiss Observer Z1 widefield microscope, equipped with atmospheric/temperature-controlled chamber and motorized stage for multi-positional acquisition. The incubation is performed in an enclosed live cell imaging system purged with 0.1% 02 and 5% CO2 (premixed). Cells are exposed to (1) Hb-5FU-alkyl(non-cleavable)-FL conjugate, labeled with one fluorescent dye and (2) Hb-5Fu-Dan-TAM conjugate, labeled with two fluorescent dyes; for 15 min prior to the acquisition of images every 3 min for a period of 2 h. Images are deconvolved and compacted into time-lapse movies using the MetaMorph software (Molecular Device).

fluorescent labeled hemoglobin: hemoglobin linked to one or more molecules of fluorescein (fluorescein 6-carboxysuccinimidyl ester, F-6-NHS)
entry into liver cancer cells (fluorescent signal under microscope): can also enter into the cancer cells | entry into liver cancer cells (fluorescent signal under microscope) (listed as fluorescent labeled modified hemoglobin): can enter into liver cancer cells successfully
